# From EP2442784B1, “COMPOSITIONS AND METHODS FOR INHIBITING PAR2 ACTIVATION OF KERATINOCYTES” (THE PROCTER & GAMBLE COMPANY, priority 2010, dated 2012)
# Target: T1, PAR-2 receptor (Homo sapiens, UniProt P55085)
# T1 construct: host or cells: engineered cell line from DiscoveRx
# T1 sequence (P55085 26-397): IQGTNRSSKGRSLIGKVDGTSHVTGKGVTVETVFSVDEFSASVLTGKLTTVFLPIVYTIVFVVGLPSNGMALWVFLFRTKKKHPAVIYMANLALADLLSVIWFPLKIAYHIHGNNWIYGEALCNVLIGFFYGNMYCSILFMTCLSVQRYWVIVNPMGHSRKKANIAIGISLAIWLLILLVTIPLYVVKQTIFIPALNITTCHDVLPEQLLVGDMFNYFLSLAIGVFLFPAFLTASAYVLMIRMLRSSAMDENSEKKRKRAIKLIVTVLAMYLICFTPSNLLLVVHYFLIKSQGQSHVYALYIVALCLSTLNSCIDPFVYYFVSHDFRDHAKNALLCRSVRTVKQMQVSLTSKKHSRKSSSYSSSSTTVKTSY
# Assay: PAR-2 Inhibition Assay (beta arrestin recruitment / beta galactosidase complementation, luminescence; PAR2 activation by trypsin)
# Format: cell-based
# Details: for PAR2 inhibitory effect (summary in words): over the dilution factors tested; for percent inhibition of PAR2 activation: activation by trypsin, triplicate
# Source text: PAR-2 Inhibition Assay - The assay principle relies on the recruitment of beta arrestin to the activated PAR-2 receptor resulting in the formation of an active beta galactosidase enzyme which can cleave a substrate causing a luminescent signal that can be quantitated. PAR-2 can be activated by either adding trypsin and also by adding SLIGRL peptide.
# Cells expressing PAR-2 receptor coupled to the alpha fragment of beta galactosidase and expressing beta arrestin coupled to the beta fragment of beta galactosidase are obtained from DiscoveRx Corp., Freemont, CA. Cells are propagated in a culture medium of Dulbeccos Modified Eagle Medium supplemented with 10% heat-inactivated fetal bovine serum, 500 unit/mL penicillin, 500 ug/mL streptomycin, 800 ug/mL gentimicin, and 300 ug/mL hygromycin in T75 or T150 culture flasks (all media components available from Invitrogen Corp., Carlsbad, CA) in a CO2 incubator at 37°C. When cells reach approximately 80% confluency, the cells are detached from the flask using Cell Dissociation Buffer (available from Invitrogen Corp., Carlsbad, CA as item number 13151-014). The cells are counted using a hemocytometer and plated into 384 well plates at 10000 cells/well in 20 uL/well of Opti-MEM® media (available from Invitrogen Corp., Carlsbad, CA). The cells are cultured for 24 -48 hours.
# To assay potential inhibitors of PAR2 activation by trypsin, each well is treated with 1 uL of the test material in water. Each test material is run in triplicate. The cells are incubated for 30 minutes in the CO2 incubator, after which 1 uL of trypsin is added (approximate 0.1 ug/uL). The cells are incubated for an hour in the CO2 incubator after which the cell lysis substrate solution (11 uL/well) is added. The lysis substrate solution is available in the PathHunter™ Detection Kit (catalogue #93-0001) from DiscoveRx Corp., Freemont, CA, in which the components are mixed in the following ratio: • Assay Buffer: Substrate 1: Substrate 2 = 19:5:1 The plates are briefly centrifuged (approximately 5 minutes) at 800 X g to remove bubbles and are then incubated at room temperature for 1 hr. Luminescence is read for each well on an Envision™ 2101 Multilabel Reader (available form PerkinElmer, Inc., Boston, MA). The range is determined by wells with solvent control + trypsin (high control) and by wells with solvent control and no trypsin (low control). The percent PAR2 inhibition of each treatment is calculated by the following formula of the luminescence signals: (1-([treatment luminescence-low control luminescence])/([high control luminescence-low control luminescence])) × 100 [formula] Statistics are done in Excel by Microsoft, Redmond, WA, using the T-test function, single tail with uneven distribution functions.
# Using the assay outlined above, various concentrations and combinations of Laminaria Saccharina extract (e.g., Phlorogine), N-acyl Amino Acid (e.g., Sepiwhite), and vitamin B3 (e.g., niacinamide) were tested. Stock compositions of 1% Phlorogine (i.e., composition comprises approximately 0.025% - 0.01% Laminaria Saccharina extract), 1% Sepiwhite, 5% niacinamide, and combinations thereof are prepared and diluted prior to use. Test runs are performed at dilution factors of 0.045, 0.023, and 0.006. For clarity purposes, the 1% Sepiwhite composition diluted at a factor of 0.045 yields a test compositing comprising 0.045% Sepiwhite.
# [1] = stock composition diluted at dilution factor 0.006
# [2] = stock composition diluted at dilution factor 0.023
# [3] = stock composition diluted at dilution factor 0.045 (e.g. 0.045% Sepiwhite), 100% = control without trypsin
Compound,PAR2 inhibitory effect (summary in words),percent inhibition of PAR2 activation [1],percent inhibition of PAR2 activation [2],percent inhibition of PAR2 activation [3]
"C=CCCCCCCCCC(=O)N[C@@H](Cc1ccccc1)C(=O)O [1% Sepiwhite, N-undecylenoyl-L-phenylalanine]",inhibitory effect which is pronounced at higher dilutions,14%,35%,53%
"NC(=O)c1cccnc1 [5% Niacinamide, niacinamide]",inhibitory effect which is pronounced at higher dilutions,5%,14%,20%
